SMILES strings stand for the structures.

From patent publication US8501806B2, “Methods for preventing or reducing colon carcinogenesis” (Nogra Pharma Limited, priority 2008, dated 2013) come the findings set out here.

The test system of experiment [1] is established CT26-derived tumors. Briefly: Growth of established CT26 xenografts. The class given is in vivo, Balb/c mice. The settings on record: subcutaneously 80 mg/kg mouse/day for 2 weeks from day 14. On the procedure: CT26 cells (1×10^5 cells in 300 μl PBS 1×) were injected subcutaneously into the flank of Balb/c mice, whose fur was shaved and depilated. Five groups of 10 mice each were implanted with CT26. The first group received daily subcutaneously 300 μl PBS (control), the remaining groups received daily subcutaneously compound 14 at a final dose of 1, 4, 8, or 12 mg/kg/mouse dissolved in 300 μl PBS. Both compound 14 and PBS were administered starting on day 3. Further experimentation was performed to assess whether compound 14 had anti-cancer activity when administered systemically. […] Mice were monitored over the time for weight loss. After 2 weeks, mice were sacrificed, tumors were photographed, then excised and their mass calculated according to the following formula: ½×(short diameter)×(long diameter)×(height). Total extracts were prepared from xenografts and analyzed for cyclin D1 protein content by Western blotting using a commercially available antibody (Santa Cruz Biotechnology). […] After 2 weeks, mice with similar tumor size, determined by caliper measurements, were divided into three groups of 8 mice each. […] Mice were monitored over the time for weight loss. After 2 weeks, mice were sacrificed, tumors were photographed, then excised and their mass calculated as described above. […] Mice were monitored over the time and sacrificed at day 28.

For experiment [2], the system named is HCT-116 cells. Briefly: CFSE cell proliferation assay, HCT-116 cells. The class given is cell-based, human. As to conditions: equivalent concentrations; data not shown. The method, then:
All reagents used in Examples 1-3 were from Sigma-Aldrich (Milan, Italy) unless specified. Compounds were dissolved as a 25 mM stock solution in culture medium, and the pH of the solution was adjusted to 7.4, if necessary, with NaOH. The human CRC cell lines, HCT-116 and HT-29 (expressing either wild-type or mutated p53 respectively), were maintained in McCoy's 5A supplemented with 10% fetal bovine serum (FBS), 1% penicillin/streptomycin, and 50 μg/ml gentamycin. The murine CRC cell line, CT26, was maintained in RPMI 1640 medium supplemented with 10% FBS and 1% penicillin/streptomycin.
For cell growth assays, serum-starved HCT-116, HT-29, and CT26 cells were plated in appropriate complete medium at 2×10^5 cells/ml/well in 6-well culture dishes and allowed to adhere overnight. Cells were then labeled with carboxyfluorescein diacetate succinimidyl ester (CFSE) (Invitrogen, Milan Italy) at 37° C. according to the manufacturer's instruction. After 30 minutes, the medium was removed and fresh media containing 0.05% bovine serum albumin (BSA), and increasing doses of 5-ASA or disclosed compounds were added. After 24 hours, cells were collected, washed twice with PBS 1×, and then incubated with 5 μg/ml of PI for 15 minutes, at 4° C. in the dark. CFSE and/or PI-positive cells were determined by flow cytometry (Becton Dickinson, FACSCalibur, Milan, Italy). To determine whether the negative effect of compound 14 (2-methoxy-5-amino-N-hydroxybenzamide) on proliferation was reversible, cells were cultured in the presence or absence of compound 14 (1.5 and 3 mM) for 24 hours (1st culture). Afterwards, cells were either left untreated or extensively washed and cultured with medium in the absence of compound 14 for additional 24 hours (2nd culture). The percentage of proliferating cells was then evaluated by flow cytometry.

As for `Nc1ccc(O)c(C(=O)O)c1` [5-ASA, 5-amino salicylic acid, reference compound], the “tumor size of established CT26-derived tumors vs PBS” value in experiment [1] is reported as “not 5-ASA significantly reduced”.
With `OC[C@@H](O)[C@@H](O)[C@H](O)[C@H](O)CO` [mannitol, reference compound], the “effect on cell proliferation (osmotic control)” value in experiment [2] is on record as “No effect”.
